Laboratory results: patent publication US8710076B2, “2,5-disubstituted piperidine orexin receptor antagonists” (Merck Sharp & Dohme Corp., priority 2008, dated 2014)

Biological target: orexin-2 receptor (OX2R) (Homo sapiens (Human), UniProt O43614)
Test: radioligand binding assay, membranes from CHO cells expressing OX2
Conditions: membranes prepared from CHO cells expressing OX2
Experimental: The utility of the compounds in accordance with the present invention as orexin receptor OX1R and/or OX2R antagonists may be readily determined without undue experimentation by methodology well known in the art, including the “FLIPR Ca^2+Flux Assay” (Okumura et al., Biochem. Biophys. Res. Comm. 280:976-981, 2001). In a typical experiment the OX1 and OX2 receptor antagonistic activity of the compounds of the present invention was determined in accordance with the following experimental method. For intracellular calcium measurements, Chinese hamster ovary (CHO) cells expressing the rat OX1 receptor or the human OX2 receptor, are grown in Iscove's modified DMEM containing 2 mM L-glutamine, […], 1% hypoxanthine-thymidine supplement, 100 U/ml penicillin, 100 ug/ml streptomycin and 10% heat-inactivated fetal calf serum (FCS). The cells are seeded at 20,000 cells/well into Becton-Dickinson black 384-well clear bottom sterile plates coated with poly-D-lysine. All reagents were from GIBCO-Invitrogen Corp. The seeded plates are incubated overnight at 37° C. and 5% CO2. Ala-6,12 human orexin-A as the agonist is prepared as a 1 mM stock solution in 1% bovine serum albumin (BSA) and diluted in assay buffer (HBSS containing 20 mM HEPES, 0.1% BSA and 2.5 mM probenecid, pH7.4) for use in the assay at a final concentration of 70 pM. Test compounds are prepared as 10 mM stock solution in DMSO, then diluted in 384-well plates, first in DMSO, then assay buffer. On the day of the assay, cells are washed 3 times with 100 ul assay buffer and then incubated for […] (37° C., 5% CO2) in 60 ul assay buffer containing 1 uM Fluo-4AM ester, 0.02% pluronic acid, and 1% BSA. The dye loading solution is then aspirated and cells are washed 3 times with 100 ul assay buffer. 30 ul of that same buffer is left in each well. Within the Fluorescent Imaging Plate Reader (FLIPR, Molecular Devices), test compounds are added to the plate in a volume of 25 ul, incubated for 5 min and finally 25 ul of agonist is added. Fluorescence is measured for each well at 1 second intervals for 5 minutes and the height of each fluorescence peak is compared to the height of the fluorescence peak induced by 70 pM Ala-6,12 orexin-A with buffer in place of antagonist. […] Alternatively, compound potency can be assessed by a radioligand binding assay (described in Bergman et. al. Bioorg. Med. Chem. Lett. 2008, 18, 1425-1430) in which the inhibition constant (Ki) is determined in membranes prepared from CHO cells expressing either the orexin-1 (OX1) or orexin-2 (OX2) receptor. The intrinsic orexin receptor antagonist activity of a compound which may be used in the present invention may be determined by these assays.

Sequence of orexin-2 receptor (OX2R) (O43614 whole entry): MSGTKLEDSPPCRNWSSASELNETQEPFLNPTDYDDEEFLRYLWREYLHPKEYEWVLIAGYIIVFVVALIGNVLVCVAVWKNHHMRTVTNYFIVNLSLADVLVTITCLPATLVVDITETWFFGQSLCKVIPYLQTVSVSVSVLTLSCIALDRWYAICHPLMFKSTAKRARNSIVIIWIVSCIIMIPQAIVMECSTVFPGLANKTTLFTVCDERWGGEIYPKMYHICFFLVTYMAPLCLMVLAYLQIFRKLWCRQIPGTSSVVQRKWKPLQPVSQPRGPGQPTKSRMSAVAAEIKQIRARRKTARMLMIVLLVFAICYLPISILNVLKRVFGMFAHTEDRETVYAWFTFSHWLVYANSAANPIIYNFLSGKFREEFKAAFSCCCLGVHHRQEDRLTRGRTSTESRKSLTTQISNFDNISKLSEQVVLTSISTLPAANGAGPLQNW

Ki | SMILES
18.3 nM | C[C@@H]1CC[C@@H](Oc2cccc3ocnc23)CN1C(=O)c1ccccc1-n1nccn1 (mixture of isomers) [1-1, (2R,5R)- and (2S,5S)-4-({6-methyl-1-[2-(2H-1,2,3-triazol-2-yl)benzoyl]piperidin-3-yl}oxy)-l,3-benzoxazole]
0.55 nM | C[C@@H]1CC[C@@H](Oc2ccnc3c(F)cccc23)CN1C(=O)c1ccccc1-n1nccn1 [E-2]
0.11 nM | C[C@@H]1CC[C@@H](Oc2nccc3ccccc23)CN1C(=O)c1ccccc1-n1nccn1 [F-2, 1-({(2R,5R)-6-methyl-1-[2-(2H-1,2,3-triazol-2-yl)benzoyl]piperidin-3-yl}oxy)-isoquinoline]
0.56 nM | Cc1ccc(-n2nccn2)c(C(=O)N2C[C@H](Nc3nccc4ccccc34)CC[C@H]2C)c1 [H-4, N-{(2R,5R)-6-methyl-1-[5-methyl-2-(2H-1,2,3-triazol-2-yl)benzoyl]piperidin-3-yl}isoquinolin-1-amine]
